Laboratory results from patent US20240158393A1, “PYRIDONE COMPOUNDS AND METHODS OF USE” (Exelixis, Inc., priority 2021, published 2024).
Structures can show the parent of a compound that is named as a salt.

Columns and labels:
Human Mer = target: T1, Human Mer (Homo sapiens, UniProt Q12866); test: Human Mer kinase assay (33P radiometric / HTRF KinEase); assay type: biochemical; conditions: protocols of Examples C-1 and/or C-2
T1 construct: Human Mer (residues R557-E882 with H628Q and R794A, 0.7 nM); purchased Eurofins Pharma Discovery Services UK Limited (KinaseProfiler service)
T1 sequence (Q12866 557-882 limits assumed): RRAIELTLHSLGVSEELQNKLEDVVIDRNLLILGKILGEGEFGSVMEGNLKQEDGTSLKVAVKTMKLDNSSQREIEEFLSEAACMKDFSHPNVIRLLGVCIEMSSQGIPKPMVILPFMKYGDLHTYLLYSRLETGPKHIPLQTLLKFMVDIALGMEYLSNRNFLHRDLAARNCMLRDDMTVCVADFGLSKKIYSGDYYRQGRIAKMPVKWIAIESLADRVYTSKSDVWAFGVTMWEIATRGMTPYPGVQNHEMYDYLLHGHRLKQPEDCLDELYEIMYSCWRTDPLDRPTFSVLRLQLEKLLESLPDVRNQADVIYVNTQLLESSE
How it was run: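 Two formats yield IC50 values. HTRF KinEase used MER residues 528-999 with ATP at Km (40 μM), 1 μM biotin-peptide, 60 min RT, […], 10 concentrations. 33P filter assay used 0.7 nM Mer R557-E882 (H628Q/R794A), 10 μM ATP, 250 μM peptide, 40 min RT, top 1 μM.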

Human KDR = target: T2, Human KDR (Homo sapiens, UniProt P35968); test: Human KDR kinase assay (33P radiometric / HTRF KinEase); assay type: biochemical; conditions: protocols of Examples B-1 and/or B-2
T2 construct: Human KDR (residues K790-V1356, 55 nM); purchased Eurofins Pharma Discovery Services UK Limited (KinaseProfiler, B-1) and/or CarnaBio (B-2)
How it was run: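 Radiometric: KDR K790-V1356 (55 nM), MOPS pH 7.0, myelin basic protein, 10 μM [γ-33P]ATP, 40 min at room temperature, filter-bound 33P counted; nine half-log doses, top 1 μM. HTRF: KDR 790-1356, 1 μM biotinylated peptide, ATP at Km (4.0 μM), 40 min, 10 doses. IC50 from logistic fits.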

T2 sequence (P35968 790-1356): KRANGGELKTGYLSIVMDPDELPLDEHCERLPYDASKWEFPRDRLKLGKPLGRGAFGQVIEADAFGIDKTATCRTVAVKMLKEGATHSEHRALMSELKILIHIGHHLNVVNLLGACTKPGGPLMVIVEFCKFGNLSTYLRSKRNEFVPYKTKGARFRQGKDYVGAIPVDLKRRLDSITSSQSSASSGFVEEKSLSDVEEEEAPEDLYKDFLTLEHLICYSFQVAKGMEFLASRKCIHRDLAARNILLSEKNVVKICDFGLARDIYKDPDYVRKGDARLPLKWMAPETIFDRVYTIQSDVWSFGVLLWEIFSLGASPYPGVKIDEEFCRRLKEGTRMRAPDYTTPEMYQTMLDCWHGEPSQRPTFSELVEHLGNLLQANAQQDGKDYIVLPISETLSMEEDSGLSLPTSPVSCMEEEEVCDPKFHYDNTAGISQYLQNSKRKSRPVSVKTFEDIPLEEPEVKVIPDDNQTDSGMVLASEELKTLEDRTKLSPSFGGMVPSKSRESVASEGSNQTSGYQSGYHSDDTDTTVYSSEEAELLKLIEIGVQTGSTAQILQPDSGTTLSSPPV

Structure (SMILES)	IC50 (Human Mer)	IC50 (Human KDR)
COCCOc1cnc2c(Oc3ccc(NC(=O)c4c(C)n(C)c(C)c(C5=CCCC5)c4=O)cc3F)ccnc2c1 [Compound 65, 5-(Cyclopenten-1-yl)-N-[3-fluoro-4-[[7-(2-methoxyethoxy)-1,5-naphthyridin-4-yl]oxy]phenyl]-1,2,6-trimethyl-4-oxopyridine-3-carboxamide]	≤ 100 nM	100 to 300 nM
C=C(C)c1c(C)n(C)c(C)c(C(=O)Nc2ccc(Oc3ccnc4cc(OC)c(OC)nc34)c(F)c2)c1=O [Compound 52, N-[4-[(6,7-Dimethoxy-1,5-naphthyridin-4-yl)oxy]-3-fluorophenyl]-1,2,6-trimethyl-4-oxo-5-prop-1-en-2-ylpyridine-3-carboxamide]	≤ 100 nM	> 300 nM
COCCOc1cc2nccc(Oc3ccc(NC(=O)c4c(C)n(C)c(C)c(C5=CCCCC5)c4=O)cc3F)c2nc1OC [Compound 58, 5-(Cyclohexen-1-yl)-N-[3-fluoro-4-[[6-methoxy-7-(2-methoxyethoxy)-1,5-naphthyridin-4-yl]oxy]phenyl]-1,2,6-trimethyl-4-oxopyridine-3-carboxamide]	≤ 100 nM	≤ 100 nM
C=C(C)c1c(C)n(C)c(C)c(C(=O)Nc2ccc(Oc3ccnc4cc(OC)c(OC)nc34)cc2)c1=O [Compound 55, N-[4-[(6,7-Dimethoxy-1,5-naphthyridin-4-yl)oxy]phenyl]-1,2,6-trimethyl-4-oxo-5-prop-1-en-2-ylpyridine-3-carboxamide]	≤ 100 nM	> 300 nM
COc1cc2nccc(Oc3ccc(NC(=O)c4c5n(c(C)c(C6=CCOCC6)c4=O)CCOC5)cc3)c2nc1OC [Compound 73, 7-(3,6-Dihydro-2H-pyran-4-yl)-N-[4-[(6,7-dimethoxy-1,5-naphthyridin-4-yl)oxy]phenyl]-6-methyl-8-oxo-3,4-dihydro-1H-pyrido[2,1-c][1,4]oxazine-9-carboxamide]	≤ 100 nM	> 300 nM
COc1cc2nccc(Oc3ccc(NC(=O)c4c(C)n(C)c(C)c(C5=CCOCC5)c4=O)cc3F)c2nc1OC [Compound 53, 5-(3,6-Dihydro-2H-pyran-4-yl)-N-[4-[(6,7-dimethoxy-1,5-naphthyridin-4-yl)oxy]-3-fluorophenyl]-1,2,6-trimethyl-4-oxopyridine-3-carboxamide]	≤ 100 nM	> 300 nM
COCCOc1cnc2c(Oc3ccc(NC(=O)c4c(C)n(C)c(C)c(C5=CCCCC5)c4=O)cc3F)ccnc2c1 [Compound 66, 5-(Cyclohexen-1-yl)-N-[3-fluoro-4-[[7-(2-methoxyethoxy)-1,5-naphthyridin-4-yl]oxy]phenyl]-1,2,6-trimethyl-4-oxopyridine-3-carboxamide]	≤ 100 nM	> 300 nM
COCCOc1cc2nccc(Oc3ccc(NC(=O)c4c(C)n(C)c(C)c(/C=C/C5CCCC5)c4=O)cc3F)c2nc1OC [Compound 54, 5-[(E)-2-Cyclopentylethenyl]-N-[3-fluoro-4-[[6-methoxy-7-(2-methoxyethoxy)-1,5-naphthyridin-4-yl]oxy]phenyl]-1,2,6-trimethyl-4-oxopyridine-3-carboxamide]	≤ 100 nM	100 to 300 nM

Results, then the compound that gave them:

IC50 (Human Mer)	IC50 (Human KDR)	Structure (SMILES)
≤ 100 nM	≤ 100 nM	COc1cc2nccc(Oc3ccc(NC(=O)c4c5n(cc(C6=CCCCC6)c4=O)CCOC5)cc3F)c2nc1OC [Compound G1-4, 7-(Cyclohexen-1-yl)-N-[4-[(6,7-dimethoxy-1,5-naphthyridin-4-yl)oxy]-3-fluorophenyl]-8-oxo-3,4-dihydro-1H-pyrido[2,1-c][1,4]oxazine-9-carboxamide]
≤ 100 nM	≤ 100 nM	COc1cc2nccc(Oc3ccc(NC(=O)c4cnc(C)c(C5=CCCC5)c4O)cc3F)c2nc1OC [Compound G1-2, 5-(Cyclopenten-1-yl)-N-[4-[(6,7-dimethoxy-1,5-naphthyridin-4-yl)oxy]-3-fluorophenyl]-4-hydroxy-6-methylpyridine-3-carboxamide hydrochloride]
≤ 100 nM	≤ 100 nM	COc1cc2nccc(Oc3ccc(NC(=O)c4cnc(C)c(C5=CCCCC5)c4O)cc3F)c2nc1OC [Compound G1-3, 5-(Cyclohexen-1-yl)-N-[4-[(6,7-dimethoxy-1,5-naphthyridin-4-yl)oxy]-3-fluorophenyl]-4-hydroxy-6-methylpyridine-3-carboxamide]
≤ 100 nM	≤ 100 nM	COc1nc2c(Oc3ccc(NC(=O)c4c(C)n(C)c(C)c(C5=CCCC5)c4=O)cc3F)ccnc2cc1OCCC1CCC1 [Compound 74, N-[4-[[7-(2-Cyclobutylethoxy)-6-methoxy-1,5-naphthyridin-4-yl]oxy]-3-fluorophenyl]-5-(cyclopenten-1-yl)-1,2,6-trimethyl-4-oxopyridine-3-carboxamide]
